Laboratory results published in patent US6369052B1, “Combination of huperzine and nicotinic compounds as a neuroprotective agent” (Georgetown University, priority 2000, dated 2002).
Read-outs that look alike come from different tables or passages of the source.

How the values were obtained:
Format in all cases: cell-based
[1] = tested on: mixed cortical cultures from mouse brain; experiment: NMDA-induced cell toxicity in mixed cortical (neuronal-glial) cultures, LDH release (Example 1)
Description: Graph B represents the dose-dependent effect of (−)-huperzine A alone (unfilled circles) and in the presence (filled circles) of 10 μM (−)-nicotine. Toxicity was induced by a 10 minute treatment with 75 μM NMDA in the absence or presence of the indicated drugs.
In a first experiment, four samples each containing neuronal-glial cultures from mouse cerebral cortical cultures and a different concentration of (−)-nicotine (ranging from 0 to 100 μM) were treated for 10 minutes with 75 μM of NMDA (commercially available, for example, from Sigma Chemical Co., St. Louis, Mo.) to induce cell death. The cultures were prepared from 15-day-old fetal Swiss-Webster mice, as described in Bruno et al., 1998 Neuroscience 85:751-7 (hereinafter “Bruno et al.”), incorporated herein by reference. Neuronal cells were plated in 96-well plates on a layer of confluent glial cells at a density of 200,000 cells/well in EMEM medium containing 5% fetal bovine serum and 5% horse serum. Then the NMDA was removed replacing the medium with fresh serum-free culture medium and cell death was assessed for each sample by measuring the amount of lactate dehydrogenase (“LDH”) released into the medium according to the procedure described in Bruno et al. The data are summarized in FIG. 1, Graph A, as lines connecting the values (represented by unfilled squares) of % of NMDA toxicity (i.e., % cell death) at the corresponding concentration of (−)-nicotine in μM.
In a second experiment, six samples each containing neuronal-glial cultures from mouse brain and a different concentration of (−)-huperzine A (ranging from 0 to 10 μM) were treated with 75 μM of NMDA, using the above-described procedure. Then cell death was assessed for each sample using the procedure described above. The data are summarized in FIG. 1, Graph B, as lines connecting the values (represented by unfilled circles) of % of NMDA toxicity at the corresponding concentration of (−)-huperzine A in μM.
In a third experiment, six samples each containing neuronal-glial cultures from mouse brain, a different concentration of (−)-huperzine A (ranging from 0 to 10 μM), and a fixed concentration of 10 μM of (−)-nicotine were treated with 75 μM NMDA, using the procedure described above. Then cell death was assessed for each sample as above. The data are summarized in FIG. 1, Graph B, as lines connecting the values (represented by black-filled circles) of % of NMDA toxicity at the corresponding μM-concentration of(−)-huperzine A.

[2] = tested on: cultures of granule neurons prepared from mouse cerebellum; experiment: β-amyloid-peptide-induced cell toxicity in cerebellar granule neurons, LDH release (Example 2)
Description: Toxicity was induced by a 48 hour treatment with 25 μM β-amyloid peptide in the absence or presence of the indicated drugs.
In a first experiment, four samples each containing cultures of granule neurons prepared from mouse cerebellum and a different concentration of (−)-nicotine (ranging from 0 to 100 μM) were treated for 48 hours with 25 μM β-amyloid peptide (“AP”) (commercially available, for example, from Bachem, Inc., Torrance, Calif.) to induce cell death, according to the procedure described in Copani et al., 1995 Mol Pharmacol 47:890-7 (hereinafter “Copani et al.”).
Then cell death was assessed by measuring the amount of LDH released into the medium according to the procedure described in Bruno et al. The data are summarized in FIG. 2, Graph A, as lines connecting the values (represented by unfilled squares) of % of β-amyloid-peptide-induced toxicity (i.e., % cell death) at the corresponding concentration of nicotine in μM.
In a second experiment, four samples each containing cultures of granule neurons prepared from mouse cerebellum and a different concentration of (−)-huperzine A (ranging from 0 to 10 μM), were treated for 48 hours with 25 μM AP, (25-35 fragment) according to the above-described procedure. Then cell death was assessed as described above. The data are summarized in FIG. 2, Graph B, as lines connecting the values (represented by unfilled circles) of % of β-amyloid-peptide-induced toxicity at a particular concentration of (−)-huperzine A in μM.
In a third experiment, 4 samples each containing cultures of granule neurons prepared from mouse cerebellum, a different concentrations of (−)-huperzine A (ranging from 0 to 10 μM), and a fixed concentration of 10 μM of (−)-nicotine were treated for 48 hours with 25 μM AP using the procedure described above. Then cell death was assessed as above. The data are summarized in FIG. 2, Graph B, as lines connecting the values (represented by black-filled circles) of % of β-amyloid-peptide-induced toxicity at a particular μM-concentration of (−)-huperzine A.

[3] = tested on: neuronal-glial cultures from mouse cerebral cortical cultures; experiment: NMDA-induced cell toxicity in mixed cortical cultures, low drug concentrations, LDH release (Example 3)
[4] = drug alone, 75 μM NMDA for 10 minutes, FIG. 1
[5] = drug alone, nicotine 0-100 μM, huperzine A 0-10 μM
[6] = drug alone, 25 μM β-amyloid peptide for 48 hours, FIG. 2

Row | SMILES | NMDA-induced cell death [1] | cell death (% of NMDA toxicity) at maximal neuroprotection [1] [%] | maximal level of neuroprotection [1] | neuroprotection [1] | cell death (% of β-amyloid-peptide-induced toxicity) at maximal neuroprotection [2] [%] | maximal level of neuroprotection [2] | neuroprotection [2] | toxicity induced by 25 μM AP [2] | neuroprotective effect [3] | cell death (% of NMDA toxicity) at maximal neuroprotection [1, 4] [%] | maximal level of neuroprotection [1, 4] | NMDA-induced cell death [1, 5] | cell death (% of β-amyloid-peptide-induced toxicity) at maximal neuroprotection [2, 6] [%] | maximal level of neuroprotection [2, 6] | toxicity induced by 25 μM AP [2, 5] | neuroprotective effect ([3]; (−)-huperzine A alone, 1-1000 nM, 100 μM NMDA for 10 minutes)
1 | CN1CCCC1c1cccnc1 (single isomer, unassigned; (-)) [(−)-nicotine] | decreased in a dose-dependent manner | 45 | about 55% | about 40% | 45 | about 55% | about 20% | decreased in a dose-dependent manner | little effect | – | – | – | – | – | – | –
2 | C/C=C1\[C@H]2C=C(C)C[C@]1(N)c1ccc(=O)[nH]c1C2 [(−)-huperzine A] | – | – | – | – | – | – | – | – | – | 55 | about 45% | decreased in a dose-dependent manner | 70 | about 30% | decreased in a dose-dependent manner | no significant neuroprotective effects
